Type in all cases: functional
For experiment [1], the system named is Streptococcus sp. Briefly: In vitro minimum inhibitory concentration against Streptococcus species; 0.5-2.
The test system of experiment [2] is Staphylococcus aureus. Put plainly: In vitro minimum inhibitory concentration against Staphylococcus aureus; 2-8.
Experiment [3] relates to Enterococcus sp. Put plainly: In vitro minimum inhibitory concentration against Enterococcus species; 4-32.
For experiment [4], the system named is Staphylococcus aureus. Briefly: In vitro minimum inhibitory concentration against Staphylococcus aureus; 0.5-2.
The test system of experiment [5] is Enterococcus sp. Briefly: In vitro minimum inhibitory concentration against Enterococcus species; 2-4.
Experiment [6] relates to Streptococcus sp. Briefly: In vitro minimum inhibitory concentration against Streptococcus species.
Experiment [7] has as its system Staphylococcus aureus. Briefly: In vitro minimum inhibitory concentration against Staphylococcus aureus; 1-8.
Experiment [8] has as its system Staphylococcus aureus. Put plainly: In vitro minimum inhibitory concentration against Staphylococcus aureus; 32-64.
Experiment [9] has as its system Enterococcus sp. Put plainly: In vitro minimum inhibitory concentration against Enterococcus species; 32->64.
In experiment [10] the test system is Streptococcus sp. Put plainly: In vitro minimum inhibitory concentration against Streptococcus species; 8-32.
The test system of experiment [11] is Staphylococcus aureus. Put plainly: In vitro minimum inhibitory concentration against Staphylococcus aureus; 2-4.
For experiment [12], the system named is Enterococcus sp. Briefly: In vitro minimum inhibitory concentration against Enterococcus species; 4-16.
In experiment [13] the test system is Streptococcus sp. Put plainly: In vitro minimum inhibitory concentration against Streptococcus species; </=0.06-2.
Experiment [14] deals with Enterococcus sp. Briefly: In vitro minimum inhibitory concentration against Enterococcus species; 16-32.
In experiment [15] the test system is Streptococcus sp. Briefly: In vitro minimum inhibitory concentration against Streptococcus species; 1-16.
The subject of experiment [16] is Staphylococcus aureus. Put plainly: In vitro minimum inhibitory concentration against Staphylococcus aureus; 16-32.
The subject of experiment [17] is Staphylococcus aureus. Put plainly: In vitro minimum inhibitory concentration against Staphylococcus aureus; 1-2.
For experiment [18], the system named is Staphylococcus aureus. Put plainly: In vitro minimum inhibitory concentration against Staphylococcus aureus; 4-8.
Experiment [19] relates to Enterococcus sp. Put plainly: In vitro minimum inhibitory concentration against Enterococcus species; 8-16.

8 compounds from ChEMBL document CHEMBL1136816, “Synthesis and evaluation of ether and halogenated derivatives of mannopeptimycin glycopeptide antibiotics” (2003) can be followed below.

Broadly, the MIC is the lowest concentration that inhibits growth of the organism.

In brackets after ≈: the same amount, converted by molar mass.

As for `COc1ccc(COC[C@H]2O[C@H](O[C@H]3[C@H](O)[C@H](O)[C@@H](Oc4ccc(C[C@H]5NC(=O)[C@H]([C@@H](C)c6ccccc6)NC(=O)CNC(=O)[C@H](CO)NC(=O)[C@@H]([C@@H](O)[C@@H]6CN=C(N)N6[C@H]6O[C@H](CO)[C@@H](O)[C@H](O)[C@@H]6O)NC(=O)[C@H]([C@@H](O)[C@@H]6CN=C(N)N6)NC5=O)cc4)O[C@@H]3CO)[C@@H](O)[C@@H](O)[C@@H]2O)cc1F`, the MIC in experiment [1] was determined as 0.5 µg/mL (≈ 0.349 µM); in [2] it was 2 µg/mL (≈ 1.4 µM); in [3] it was 4 µg/mL (≈ 2.79 µM).

Take `C[C@@H](c1ccccc1)[C@@H]1NC(=O)CNC(=O)[C@H](CO)NC(=O)[C@@H]([C@@H](O)[C@@H]2CN=C(N)N2[C@H]2O[C@H](CO)[C@@H](O)[C@H](O)[C@@H]2O)NC(=O)[C@H]([C@@H](O)[C@@H]2CN=C(N)N2)NC(=O)[C@@H](Cc2ccc(O[C@H]3O[C@H](CO)[C@@H](O[C@H]4O[C@H](CO)[C@@H](OCc5ccc(OCc6ccccc6)cc5)[C@H](O)[C@@H]4O)[C@H](O)[C@@H]3O)cc2)NC1=O`: the MIC in [4] is 0.5 µg/mL (≈ 0.335 µM); in experiment [5], 2 µg/mL (≈ 1.34 µM); in experiment [6], at most 0.06 µg/mL.

`CCOc1cc(COCC2O[C@H](O[C@H]3[C@H](O)[C@H](O)[C@@H](Oc4ccc(C[C@H]5NC(=O)[C@H]([C@@H](C)c6ccccc6)NC(=O)CNC(=O)[C@H](CO)NC(=O)[C@@H]([C@@H](O)[C@@H]6CN=C(N)N6[C@H]6O[C@H](CO)[C@@H](O)[C@H](O)[C@@H]6O)NC(=O)[C@H]([C@@H](O)[C@@H]6CN=C(N)N6)NC5=O)cc4)O[C@@H]3CO)[C@@H](O)[C@@H](O)[C@@H]2O)ccc1OC` (some centres undefined): the values for the MIC in experiment [1], in experiment [7] and in experiment [3] were 0.5 µg/mL (≈ 0.343 µM), 1 µg/mL (≈ 0.685 µM) and 4 µg/mL (≈ 2.74 µM), respectively.

As to `C[C@@H](c1ccccc1)[C@@H]1NC(=O)CNC(=O)[C@H](CO)NC(=O)[C@@H]([C@@H](O)[C@@H]2CN=C(N)N2[C@H]2O[C@H](CO)[C@@H](O)[C@H](O)[C@@H]2O)NC(=O)[C@H]([C@@H](O)[C@@H]2CN=C(N)N2)NC(=O)[C@@H](Cc2ccc(O[C@H]3O[C@H](CO)[C@@H](O[C@H]4O[C@H](COC/C=C/c5ccc(N(C)C)cc5)[C@@H](O)[C@H](O)[C@@H]4O)[C@H](O)[C@@H]3O)cc2)NC1=O`, the MIC in experiment [8] was determined as 32 µg/mL (≈ 22 µM); in experiment [9], 32 µg/mL (≈ 22 µM); in [10], 8 µg/mL (≈ 5.5 µM).

In the case of `COc1ccc(CO[C@H]2[C@H](O)[C@H](O)[C@@H](O[C@H]3[C@H](O)[C@H](O)[C@@H](Oc4ccc(C[C@H]5NC(=O)[C@H]([C@@H](C)c6ccccc6)NC(=O)CNC(=O)[C@H](CO)NC(=O)[C@@H]([C@@H](O)[C@@H]6CN=C(N)N6[C@H]6O[C@H](CO)[C@@H](O)[C@H](O)[C@@H]6O)NC(=O)[C@H]([C@@H](O)[C@@H]6CN=C(N)N6)NC5=O)cc4)O[C@@H]3CO)O[C@@H]2CO)cc1OCc1ccccc1`, the minimal inhibitory concentration (MIC) in experiment [11] is 2 µg/mL (≈ 1.31 µM); in experiment [12], 4 µg/mL (≈ 2.63 µM); in experiment [13], at most 0.06 µg/mL.

As to `C[C@@H](c1ccccc1)[C@@H]1NC(=O)CNC(=O)[C@H](CO)NC(=O)[C@@H]([C@@H](O)[C@@H]2CN=C(N)N2[C@H]2O[C@H](CO)[C@@H](O)[C@H](O)[C@@H]2O)NC(=O)[C@H]([C@@H](O)[C@@H]2CN=C(N)N2)NC(=O)[C@@H](Cc2ccc(O[C@H]3O[C@H](CO)[C@@H](O[C@H]4O[C@H](CO)[C@@H](OC/C=C/c5ccc(N(C)C)cc5)[C@H](O)[C@@H]4O)[C@H](O)[C@@H]3O)cc2)NC1=O`, the MIC in experiment [14] came to 16 µg/mL (≈ 11 µM); in experiment [15], 1 µg/mL (≈ 0.688 µM); in [16], 16 µg/mL (≈ 11 µM).

`CCCOc1ccc(COC[C@H]2O[C@H](O[C@H]3[C@H](O)[C@H](O)[C@@H](Oc4ccc(C[C@H]5NC(=O)[C@H]([C@@H](C)c6ccccc6)NC(=O)CNC(=O)[C@H](CO)NC(=O)[C@@H]([C@@H](O)[C@@H]6CN=C(N)N6[C@H]6O[C@H](CO)[C@@H](O)[C@H](O)[C@@H]6O)NC(=O)[C@H]([C@@H](O)[C@@H]6CN=C(N)N6)NC5=O)cc4)O[C@@H]3CO)[C@@H](O)[C@@H](O)[C@@H]2O)cc1`: the MIC in experiment [17] is 1 µg/mL (≈ 0.693 µM); in experiment [5] it was 2 µg/mL (≈ 1.39 µM); in [6], at most 0.06 µg/mL.

Consider `C[C@@H](c1ccccc1)[C@@H]1NC(=O)CNC(=O)[C@H](CO)NC(=O)[C@@H]([C@@H](O)[C@@H]2CN=C(N)N2[C@H]2O[C@H](CO)[C@@H](O)[C@H](O)[C@@H]2O)NC(=O)[C@H]([C@@H](O)[C@@H]2CN=C(N)N2)NC(=O)[C@@H](Cc2ccc(O[C@H]3O[C@H](CO)[C@@H](O[C@H]4O[C@H](COC/C=C/c5ccccc5)[C@@H](O)[C@H](O)[C@@H]4O)[C@H](O)[C@@H]3O)cc2)NC1=O`, for which the figures for the MIC in [18], in experiment [1] and in [19] were 4 µg/mL (≈ 2.83 µM), 0.5 µg/mL (≈ 0.354 µM) and 8 µg/mL (≈ 5.67 µM), respectively.
